Values quoted from earlier work in patent publication US9827227B2, “Controlled release pharmaceutical formulations of nitazoxanide” (Romark Laboratories L.C., priority 2009, dated 2017).

Tests used:
DNA viruses = conditions: in vitro, in words
hepatitis C virus (HCV) = conditions: in vitro and in clinical trials, in words
[1] = after oral administration of nitazoxanide in humans

CC(=O)Oc1ccccc1C(=O)Nc1ncc([N+](=O)[O-])s1 [Nitazoxanide, 2-(acetolyloxy)-N-(5-nitro-2-thiazolyl) benzamide]
activity against certain DNA viruses (DNA viruses): active
activity against hepatitis C virus (HCV) (hepatitis C virus (HCV)): activity against hepatitis C virus

O=C(Nc1ncc([N+](=O)[O-])s1)c1ccccc1O [tizoxanide]
half-life in plasma [1]: approximately 1.5 hours
activity against certain DNA viruses (DNA viruses): active
activity against hepatitis C virus (HCV) (hepatitis C virus (HCV)): activity against hepatitis C virus
